Reference: patent publication US20230122776A1, “ANTIVIRAL AGENT” (priority 2020, published 2023)
“And” between values parts separate entries of the source, which are not always exact repeats. Equal entries are not always repeated. Where two headings read alike, the source gives them in different places.

Tests used:
SARS-CoV-2 [1] = assay type: in vivo
SARS-CoV-2 [2] = assay type: in vivo; conditions: 4 close contacts; inhaled taurolidine 0.5% 3 times or twice a day for 7 days
[3] = target: blood coagulation factor X (Homo sapiens, UniProt P00742); conditions: from Reinmüller, Zentralblatt Chirurgie 124 (1999); cited from earlier work
Chain of blood coagulation factor X (P00742 41-488): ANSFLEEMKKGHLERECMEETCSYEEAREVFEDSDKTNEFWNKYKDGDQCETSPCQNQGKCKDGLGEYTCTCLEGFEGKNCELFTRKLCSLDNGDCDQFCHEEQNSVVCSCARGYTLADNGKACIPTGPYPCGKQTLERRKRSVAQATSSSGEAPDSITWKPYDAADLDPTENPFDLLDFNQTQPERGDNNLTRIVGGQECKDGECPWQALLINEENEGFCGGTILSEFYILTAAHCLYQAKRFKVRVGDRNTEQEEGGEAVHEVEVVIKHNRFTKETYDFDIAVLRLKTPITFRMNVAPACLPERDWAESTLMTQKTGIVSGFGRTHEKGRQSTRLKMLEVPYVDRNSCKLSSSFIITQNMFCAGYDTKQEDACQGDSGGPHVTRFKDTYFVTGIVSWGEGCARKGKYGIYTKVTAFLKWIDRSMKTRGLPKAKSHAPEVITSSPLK

In the case of `O=S1(=O)CCN(CN2CCS(=O)(=O)NC2)CN1` [taurolidine], the “time interval from the start of treatment to the easing of the symptoms” value (SARS-CoV-2 [1]; SARS-CoV-2 positive (POCT) participant, inhaled taurolidine 0.5% three times a day) is reported as ≤ 48 h, the “time interval from the start of treatment to the easing of the symptoms” value (SARS-CoV-2 [1]; in vivo) is reported as 96 h and 72 h and the “POCT for SARS-CoV-2 under prophylaxis” value (SARS-CoV-2 [2]) is reported as “remained negative”. For the same compound, the “disease symptoms under prophylaxis” value (SARS-CoV-2 [2]) was “remained symptom-free” and the “activity of the blood coagulation factor X” value [3] was “inhibits the activity”.
